These results are taken from US11214536B2, “Polymorphs and uses thereof” (Inspirna, Inc., priority 2017, dated 2022).

A short description of the data set: Dynamic Vapor Sorption (DVS), hygroscopicity, with XRPD of the post-DVS solid. The following applies: for mass uptake at 90% RH by DVS analysis: 25° C., DVS sorption/desorption cycles; for hygroscopic nature by DVS analysis: assessed from mass uptake at 90% RH; for solid form of the post-DVS sample (XRPD): XRPD analysis on solid retained after DVS. The class given is physicochemical. How it is done: Approximately, 10-20 mg of sample was placed into a mesh vapor sorption balance pan and loaded into a DVS Advantage dynamic vapor sorption balance by Surface Measurement Systems. The sample was subjected to a ramping profile from 40-90% relative humidity (RH) at 10% increments, maintaining the sample at each step until a stable weight had been achieved (dm/dt 0.004%, minimum step length 30 minutes, maximum step length 500 minutes) at 25° C. After completion of the sorption cycle, the sample was dried using the same procedure to 0% RH and then a second sorption cycle back to 40% RH. Two cycles were performed. The weight change during the sorption/desorption cycles were plotted, allowing for the hygroscopic nature of the sample to be determined. XRPD analysis was then carried out on any solid retained.

For the compound `CC(CCOc1cccc(CC(=O)O)c1)N(Cc1cccc(C(F)(F)F)c1Cl)CC(c1ccccc1)c1ccccc1` (stereo not shown) [Form 4], the “mass uptake at 90% RH by DVS analysis” value was “about 1.16%”, the “hygroscopic nature by DVS analysis” value is reported as “slightly hygroscopic” and the “solid form of the post-DVS sample (XRPD)” value was “no change in the solid form”.
For the compound `CC(CCOc1cccc(CC(=O)O)c1)N(Cc1cccc(C(F)(F)F)c1Cl)CC(c1ccccc1)c1ccccc1` (stereo not shown) [Form 5], the “mass uptake at 90% RH by DVS analysis” value is reported as “about 2.7%”, the “hygroscopic nature by DVS analysis” value was “slightly hygroscopic” and the “solid form of the post-DVS sample (XRPD)” value is “partially amorphous Form 5 material”.
`CC(CCOc1cccc(CC(=O)O)c1)N(Cc1cccc(C(F)(F)F)c1Cl)CC(c1ccccc1)c1ccccc1` (stereo not shown) [Form 6]: the “mass uptake at 90% RH by DVS analysis” value is reported as “about 2.3%”, the “hygroscopic nature by DVS analysis” value is reported as “slightly hygroscopic” and the “solid form of the post-DVS sample (XRPD)” value is listed as “no significant change in the solid form”.
Turning to `CC(CCOc1cccc(CC(=O)O)c1)N(Cc1cccc(C(F)(F)F)c1Cl)CC(c1ccccc1)c1ccccc1` (stereo not shown) [amorphous material], the “mass uptake at 90% RH by DVS analysis” value is listed as “about 6.17%”, the “hygroscopic nature by DVS analysis” value is reported as “highly hygroscopic” and the “solid form of the post-DVS sample (XRPD)” value is “remained amorphous”. In addition, the “mass uptake at 90% RH by DVS analysis” value (listed as amorphous compound) is “about 6.17%”.
